The values that follow are results of earlier work, collected in US20040022740A1, “Macrolide formulations for inhalation and methods of treatment of endobronchial infections” (priority 2003, published 2004).

SMILES strings stand for the structures.

Take `CC[C@H]1OC(=O)[C@H](C)[C@@H](O[C@H]2C[C@@](C)(OC)[C@@H](O)[C@H](C)O2)[C@H](C)[C@@H](O[C@@H]2O[C@H](C)C[C@H](N(C)C)[C@H]2O)[C@](C)(O)C[C@@H](C)[C@@H]2N[C@@H](COCCOC)O[C@H]([C@H]2C)[C@]1(C)O` [dirithromycin]: the oral bioavailability (in humans) is reported as 10-14%. For the same compound, the “elimination into the feces” value (in vivo) is recorded as 62-81%.
